Laboratory results: US20030064936A1 (priority 2001, published 2003)

How the values were obtained:
[1] = molecular target: recombinant ceramidase from Pseudomonas aeruginosa PA01 (Pseudomonas aeruginosa, UniProt Q9I596); assay: Inhibition of recombinant Pseudomonas aeruginosa PA01 ceramidase, quenched fluorescent ceramide analog substrate; format: biochemical; settings: for capability of inhibiting Pseudomonas aeruginosa ceramidase: known human ceramidase inhibitors, various concentrations, assay buffer containing 20 μM of substrate; for ceramidase inhibition ability, comparison in words: comparison among examples 1-9
Protocol: The effect of various active compounds on the enzymatic activity of recombinant ceramidase from Pseudomonas aeruginosa PA01 was tested.
The assays were performed at 25° C., with magnetic stirring, using Photo Technology International fluorimeter equipped with a LPS 220 Lamp Power Supply, a 810 Photomultiplier Detector System, a MD 5020 Motor Driver, and a Dell Dimensions M166a computer with FELIX® software. Excitation was done at 346 nm (±2 nm) and the emission was measured at 378 nm (±2 nm).The assay buffer consisted of 50 mM Tris/HCl, 4 mM CaCl2, 0.1% w/v Triton X-100, pH 8.5.
The active compounds were dissolved in DMF (dimethylformamide) to a concentration of 4 mM. Of these solutions, 250 μliter was added to 50 milliliter assay buffer under vortex, yielding 20 μM lipid solutions.
To 1 mL of the lipid solution in a cuvet, 5 μL of quenched fluorescent ceramide analog as a substrate was added (end concentration 2 μM) and the system was allowed to equilibrate for 5 minutes. Then 5 μL of recombinant ceramidase was added (end concentration 4.3 nM). The reaction was allowed to proceed for 20 minutes. The slope at 378 nm was used to determine the reaction rate.
Control experiments were done in the absence of sphingolipids, with corresponding amounts of DMF (0.5% v/v for the 20 μM samples). The reaction rate of the controls was set at 100%. The percentages in the table are given as % of inhibition (control value—reaction rate of the sample).
The potential of several known human ceramidase inhibiting compounds of inhibiting Pseudomonas aeruginosa PA01 ceramidase was tested at various concentrations, in the assay buffer containing 20 μM of substrate.
The potential of several ceramide and sphingoid bases of inhibiting Pseudomonas aeruginosa PA01 ceramidase was tested at a pH of 8.5, using respectively, 2 μM and 20 μM of ceramidase substrate, 1.6 mM Triton X-100 and 4 mM of CaCl2.

[2] = tested on: ceramidase originating from guinea pig epidermis; settings: in vitro; cited from earlier work
[3] = molecular target: T1, ceramidase originating from mitochondria of rat brain (Rattus norvegicus, UniProt Q91XT9); settings: cited from earlier work
T1 construct: host or cells: rat brain mitochondria

[4] = molecular target: T2, human alkaline ceramidase (aPHC) (Homo sapiens, UniProt Q9NUN7); settings: in vitro and in cells; cited from earlier work
T2 construct: host or cells: yeast mutant strain (as cited)
T2 sequence (Q9NUN7 1-267): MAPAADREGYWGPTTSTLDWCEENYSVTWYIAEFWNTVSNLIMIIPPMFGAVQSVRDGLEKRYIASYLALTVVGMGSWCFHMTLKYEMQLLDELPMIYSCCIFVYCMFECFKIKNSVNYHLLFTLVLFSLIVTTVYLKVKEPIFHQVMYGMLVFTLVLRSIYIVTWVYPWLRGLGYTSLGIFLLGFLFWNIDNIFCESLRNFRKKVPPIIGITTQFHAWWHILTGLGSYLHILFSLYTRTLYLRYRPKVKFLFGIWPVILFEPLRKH

[5] = 20 μM active compound, pH 8.5, 25° C., 4 mM CaCl2, Triton X-100, control rate = 100%

Chain of recombinant ceramidase from Pseudomonas aeruginosa PA01 (Q9I596 25-670): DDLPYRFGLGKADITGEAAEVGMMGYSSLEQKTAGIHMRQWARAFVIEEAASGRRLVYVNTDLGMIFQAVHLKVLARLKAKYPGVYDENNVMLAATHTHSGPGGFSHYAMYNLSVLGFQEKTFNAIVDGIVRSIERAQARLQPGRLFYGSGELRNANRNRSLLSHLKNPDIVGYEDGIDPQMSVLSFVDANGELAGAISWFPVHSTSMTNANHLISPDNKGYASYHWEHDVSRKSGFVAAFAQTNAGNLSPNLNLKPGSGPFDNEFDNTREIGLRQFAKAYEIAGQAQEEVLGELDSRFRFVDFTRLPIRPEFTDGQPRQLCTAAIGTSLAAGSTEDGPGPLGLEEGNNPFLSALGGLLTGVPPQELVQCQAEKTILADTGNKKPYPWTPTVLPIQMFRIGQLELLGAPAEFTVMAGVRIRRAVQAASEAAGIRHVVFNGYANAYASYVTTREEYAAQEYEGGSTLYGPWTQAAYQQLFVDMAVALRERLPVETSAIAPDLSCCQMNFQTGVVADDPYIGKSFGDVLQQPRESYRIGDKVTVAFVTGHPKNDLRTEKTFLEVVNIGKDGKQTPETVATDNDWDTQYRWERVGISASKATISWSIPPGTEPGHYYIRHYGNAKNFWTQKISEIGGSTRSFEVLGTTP
T1 sequence (Q91XT9 whole entry): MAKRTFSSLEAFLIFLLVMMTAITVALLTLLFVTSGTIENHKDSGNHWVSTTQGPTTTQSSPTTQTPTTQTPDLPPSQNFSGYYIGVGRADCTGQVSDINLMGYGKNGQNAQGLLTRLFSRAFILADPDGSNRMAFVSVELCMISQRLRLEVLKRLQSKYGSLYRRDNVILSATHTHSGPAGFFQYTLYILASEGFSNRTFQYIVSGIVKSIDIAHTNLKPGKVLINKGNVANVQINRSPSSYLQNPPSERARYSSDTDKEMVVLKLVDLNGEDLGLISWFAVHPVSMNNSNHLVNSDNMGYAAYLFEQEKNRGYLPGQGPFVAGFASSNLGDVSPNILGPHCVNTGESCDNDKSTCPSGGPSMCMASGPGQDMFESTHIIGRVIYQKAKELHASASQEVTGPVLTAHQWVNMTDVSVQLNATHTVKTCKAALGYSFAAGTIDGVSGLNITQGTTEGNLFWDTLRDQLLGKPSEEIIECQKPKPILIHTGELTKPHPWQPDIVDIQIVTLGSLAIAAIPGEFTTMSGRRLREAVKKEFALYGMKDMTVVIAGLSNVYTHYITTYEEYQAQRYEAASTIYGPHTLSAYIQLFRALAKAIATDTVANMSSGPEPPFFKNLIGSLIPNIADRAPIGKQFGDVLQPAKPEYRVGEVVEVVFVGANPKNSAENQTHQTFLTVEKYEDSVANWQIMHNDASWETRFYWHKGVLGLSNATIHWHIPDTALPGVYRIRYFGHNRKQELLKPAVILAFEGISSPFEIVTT

| SMILES | capability of inhibiting Pseudomonas aeruginosa ceramidase [1] | % of inhibition [1, 5] [%] | further results |
| --- | --- | --- | --- |
| CCCCCCCCCCCCCC(=O)N[C@@H](C)[C@H](O)c1ccccc1 [L-erythro-MAPP, reference compound] | None of these compounds was found capable of inhibiting |  |  |
| CCCCCCCCCCCCCC[C@@H](O)[C@@H](O)[C@@H](N)CO [Phytosphingosine] |  |  | inhibition at 2 µM ([1]; pH 8.5, 2 μM active compound, pH 8.5, 25° C., 4 mM CaCl2, Triton X-100, control rate = 100%): 7.5%; inhibition at 20 µM ([1]; pH 8.5, read-out: % of inhibition, 20 μM active compound, pH 8.5, 25° C., 4 mM CaCl2, Triton X-100, control rate = 100%): 60% |
| CCCCCCCC/C=C\CCCCCCCC(=O)NCCO [N-oleoylethanolamine, reference compound] | None of these compounds was found capable of inhibiting |  |  |
| CCCCCCCCCCCCC/C=C/[C@@H](O)[C@@H](N)CO [D—erythro—sphingosine] |  | 97 | ceramidase inhibition ability, comparison in words [1]: highest ceramidase inhibition ability |
| C[C@H](N)[C@H](O)c1ccccc1 [L(−)-norephenidrin, reference compound] | None of these compounds was found capable of inhibiting |  |  |
| CCCCCCCCCCCCCC[C@@H](O)[C@@H](O)[C@@H](N)CO.Cl [Phytosphingosine.HCl] |  | 67 | % of inhibition ([1]; 2 μM active compound, pH 8.5, 25° C., 4 mM CaCl2, Triton X-100, control rate = 100%): 15%; ceramidase inhibition ability, comparison in words [1]: better ceramidase inhibiting effect than phytosphingosine |
| CCCCCCCCCCCCCC(=O)N[C@H](C)[C@@H](O)c1ccccc1 [D-erytro-MAPP, (1S,2R)-D-erythro-2-(N-myristoylamino)-1-phenyl-1-propanol, reference compound] | None of these compounds was found capable of inhibiting |  |  |
| CCCCCCCCCCCCCCC[C@H](O)[C@H](N)CO [D/L sphinganine] |  | 83 |  |
| CCCCCCCCCCCCCCC(OC(C)=O)C(OC(C)=O)C(COC(C)=O)NC(C)=O (stereo not drawn) [TAPS, tetraacetyl-phytosphingosine] |  | 22 |  |
| CCCCCCCCCCCCC/C=C/[C@H](O)[C@H](N)CO [L—erythro—sphingosine] |  | 20 |  |
| CCCCCCCCCCCCC/C=C/[C@@H](O)[C@@H](N)CO [sphingosine] |  |  | inhibition of ceramidase [2]: inhibiting ceramidase; inhibition of ceramidase [3]: capable of inhibiting ceramidase; inhibition of human alkaline ceramidase [4]: inhibited by sphingosine |
| CCCCCCCCCCCCCCCCC(O)C(=O)N[C@@H](CO)[C@H](O)[C@H](O)CCCCCCCCCCCCCC (stereo partly drawn) [Ceramide VI] |  | 11 |  |
| C[C@@H](N)[C@@H](O)c1ccccc1 [D(+)-norephenidrin, reference compound] | None of these compounds was found capable of inhibiting |  |  |
| CCCCCCCCCCCCCC[C@@H](O)[C@@H](O)[C@H](CO)NC(C)=O [MAPS, N-monoacetyl phytosphingosine] |  | 35 |  |
| CCCCCCCCCCCCCC[C@@H](O)[C@@H](O)[C@H](CO)NC(C)=O [N—acetyl—phytosphingosine] |  | 9 |  |
